From the RepoRT retention time repository (doi:10.1016/j.jchromb.2020.122105)

Experiments:
Conditions in all cases: stereoisomer not certain
[1] = RP, Waters CORTECS T3, 100 × 2.1 mm, 2.7 µm, 0.3 mL/min, estimated dead time 0.73 min; A: water + 0.1% formic acid, pH 3; B: methanol + 0.1% formic acid, pH 3; gradient (min/%B) 0/5 5/5 25/95 25.1/100 35/100 35.1/5 45/5
[2] = RP, Waters CORTECS T3, 100 × 2.1 mm, 2.7 µm, 0.1 mL/min, estimated dead time 2.2 min; A: water + 0.1% formic acid, pH 3; B: methanol + 0.1% formic acid, pH 3; gradient (min/%B) 0/5 5/5 25/95 25.1/100 35/100 35.1/5 45/5
[3] = RP, Waters CORTECS T3, 100 × 2.1 mm, 2.7 µm, 0.15 mL/min, estimated dead time 1.5 min; A: water + 0.1% formic acid, pH 3; B: methanol + 0.1% formic acid, pH 3; gradient (min/%B) 0/0 1/0 6/5 30/100 35/100 35.1/0 40/0
[4] = RP, Waters CORTECS T3, 100 × 2.1 mm, 2.7 µm, 0.1 mL/min, estimated dead time 2.2 min; A: water + 0.1% formic acid, pH 3; B: methanol + 0.1% formic acid, pH 3; gradient (min/%B) 0/0 1/0 6/5 30/100 35/100 35.1/0 40/0
[5] = RP, Waters ACQUITY UPLC BEH C18, 100 × 2.1 mm, 1.7 µm, 0.1 mL/min, estimated dead time 2.2 min; A: water + 0.1% formic acid, pH 3; B: methanol + 0.1% formic acid, pH 3; gradient (min/%B) 0/5 5/5 25/100 30/100 30.1/5 35/5
[6] = RP, Waters CORTECS T3, 100 × 2.1 mm, 2.7 µm, 0.3 mL/min, estimated dead time 0.73 min; A: water + 0.1% formic acid, pH 3; B: methanol + 0.1% formic acid, pH 3; gradient (min/%B) 0/5 5/5 25/100 30/100 30.1/5 35/5
[7] = RP, Waters CORTECS T3, 100 × 2.1 mm, 2.7 µm, 0.2 mL/min, estimated dead time 1.1 min; A: water + 0.1% formic acid, pH 3; B: methanol + 0.1% formic acid, pH 3; gradient (min/%B) 0/0 1/0 6/5 30/100 35/100 35.1/0 40/0
[8] = RP, Waters CORTECS T3, 100 × 2.1 mm, 2.7 µm, 0.3 mL/min, estimated dead time 0.73 min; A: water + 0.1% formic acid, pH 3; B: methanol + 0.1% formic acid, pH 3; gradient (min/%B) 0/0 5/0 25/100 30/100 30.1/0 35/0
[9] = RP, Waters CORTECS T3, 100 × 2.1 mm, 2.7 µm, 0.3 mL/min, estimated dead time 0.73 min; A: water + 0.1% formic acid, pH 3; B: methanol + 0.1% formic acid, pH 3; gradient (min/%B) 0/0 1/0 6/5 30/100 35/100 35.1/0 40/0
[10] = RP, Waters CORTECS T3, 100 × 2.1 mm, 2.7 µm, 0.25 mL/min, estimated dead time 0.88 min; A: water + 0.1% formic acid, pH 3; B: methanol + 0.1% formic acid, pH 3; gradient (min/%B) 0/0 1/0 6/5 30/100 35/100 35.1/0 40/0
[11] = RP, Waters ACQUITY UPLC BEH C18, 100 × 2.1 mm, 1.7 µm, 0.1 mL/min, estimated dead time 2.2 min; A: water + 0.1% formic acid, pH 3; B: methanol + 0.1% formic acid, pH 3; gradient (min/%B) 0/5 5/5 25/95 25.1/100 35/100 35.1/5 45/5
[12] = as above; remark: listed apart in the source
[13] = RP, Waters ACQUITY UPLC BEH C18, 100 × 2.1 mm, 1.7 µm, 0.2 mL/min, estimated dead time 1.1 min; A: water + 0.025% formic acid + 20 mM ammonium acetate + 0.055% ammonium hydroxide, pH 7; B: methanol; gradient (min/%B) 0/5 5/5 25/100 30/100 30.1/5 35/5
[14] = RP, Waters CORTECS T3, 100 × 2.1 mm, 2.7 µm, 0.2 mL/min, estimated dead time 1.1 min; A: water + 0.045% formic acid + 0.11% ammonium hydroxide, pH 7; B: methanol; gradient (min/%B) 0/5 5/5 25/95 25.1/100 35/100 35.1/5 45/5
[15] = RP, Waters ACQUITY UPLC BEH C18, 100 × 2.1 mm, 1.7 µm, 0.1 mL/min, estimated dead time 2.2 min; A: water + 0.045% formic acid + 0.11% ammonium hydroxide, pH 7; B: methanol; gradient (min/%B) 0/5 5/5 25/95 25.1/100 35/100 35.1/5 45/5
[16] = HILIC, Merck SeQuant ZIC-HILIC, 150 × 2.1 mm, 5 µm, 0.75 mL/min, estimated dead time 0.44 min; A: water + 10 mM ammonium formate, pH 6; B: 5% water + 95% acetonitrile + 10 mM ammonium formate, pH 6; gradient (min/%B) 0/95 5/95 20/57 25/57 30/95 40/95
[17] = RP, Waters CORTECS T3, 100 × 2.1 mm, 2.7 µm, 0.2 mL/min, estimated dead time 1.1 min; A: water + 0.1% formic acid, pH 3; B: methanol + 0.1% formic acid, pH 3; gradient (min/%B) 0/0 1/0 6/5 30/100 35/100 35.1/0 40/0; remark: listed apart in the source
[18] = RP, Waters ACQUITY UPLC BEH C18, 100 × 2.1 mm, 1.7 µm, 0.2 mL/min, estimated dead time 1.1 min; A: water + 0.025% formic acid + 20 mM ammonium acetate + 0.055% ammonium hydroxide, pH 7; B: methanol; gradient (min/%B) 0/5 5/5 25/100 30/100 30.1/5 35/5; remark: listed apart in the source
[19] = RP, Waters CORTECS T3, 100 × 2.1 mm, 2.7 µm, 0.3 mL/min, estimated dead time 0.73 min; A: water + 0.1% formic acid, pH 3; B: methanol + 0.1% formic acid, pH 3; gradient (min/%B) 0/0 5/0 25/100 30/100 30.1/0 35/0; remark: listed apart in the source
[20] = RP, Waters CORTECS T3, 100 × 2.1 mm, 2.7 µm, 0.3 mL/min, estimated dead time 0.73 min; A: water + 0.1% formic acid, pH 3; B: methanol + 0.1% formic acid, pH 3; gradient (min/%B) 0/0 1/0 6/5 30/100 35/100 35.1/0 40/0; remark: listed apart in the source
[21] = RP, Waters CORTECS T3, 100 × 2.1 mm, 2.7 µm, 0.25 mL/min, estimated dead time 0.88 min; A: water + 0.1% formic acid, pH 3; B: methanol + 0.1% formic acid, pH 3; gradient (min/%B) 0/5 5/5 25/95 25.1/100 35/100 35.1/5 45/5
[22] = RP, Thermo Scientific Hypercarb, 150 × 2.1 mm, 5 µm, 0.1 mL/min, estimated dead time 3.3 min; A: water + 0.1% formic acid, pH 3; B: methanol + 0.1% formic acid, pH 3; gradient (min/%B) 0/5 5/5 20/100 35/100 35.1/5 45/5
[23] = RP, Waters ACQUITY UPLC BEH C18, 100 × 2.1 mm, 1.7 µm, 0.1 mL/min, estimated dead time 2.2 min; A: water + 0.1% formic acid, pH 3; B: methanol + 0.1% formic acid, pH 3; gradient (min/%B) 0/5 5/5 25/95 25.1/100 35/100 35.1/5 45/5; remark: listed apart in the source
[24] = RP, Waters CORTECS T3, 100 × 2.1 mm, 2.7 µm, 0.15 mL/min, estimated dead time 1.5 min; A: water + 0.1% formic acid, pH 3; B: methanol + 0.1% formic acid, pH 3; gradient (min/%B) 0/5 5/5 25/95 25.1/100 35/100 35.1/5 45/5
[25] = RP, Waters ACQUITY UPLC BEH C18, 100 × 2.1 mm, 1.7 µm, 0.2 mL/min, estimated dead time 1.1 min; A: water + 0.1% formic acid, pH 3; B: methanol + 0.1% formic acid, pH 3; gradient (min/%B) 0/5 5/5 25/100 30/100 30.1/5 35/5
[26] = HILIC, Merck SeQuant ZIC-HILIC, 150 × 2.1 mm, 5 µm, 0.75 mL/min, estimated dead time 0.44 min; A: water + 0.1% acetic acid + 10 mM ammonium acetate, pH 4; B: 5% water + 95% acetonitrile + 0.1% acetic acid + 10 mM ammonium acetate, pH 4; gradient (min/%B) 0/95 5/95 20/57 25/57 30/95 40/95

Row | LC retention time [1] [min] | LC retention time [2] [min] | LC retention time [3] [min] | LC retention time [4] [min] | LC retention time [5] [min] | LC retention time [6] [min] | LC retention time [7] [min] | LC retention time [8] [min] | LC retention time [9] [min] | LC retention time [10] [min] | LC retention time [11] [min] | LC retention time [12] [min] | LC retention time [13] [min] | LC retention time [14] [min] | LC retention time [15] [min] | Structure (SMILES) | other results
1 | 19.9 | 23.8 | 24.7 | 21 | 22.8 |  | 23.5 |  | 22.6 | 22.9 | 23.5 | 23.5 | 19.9 | 20.9 | 23.4 | C=CC1=C(C)C(C=c2[nH]c(=Cc3[nH]c(C=C4NC(=O)C(C)=C4C=C)c(C)c3CCC(=O)O)c(CCC(=O)O)c2C)=NC1=O [BILIVERDIN] | 
2 |  | 15.3 | 14.9 | 12.1 | 15.2 | 10.7 |  | 11.7 |  |  | 15.5 |  | 6.2 | 1.35 |  | O=C(O)CCCCC1SCC2NC(=O)NC21 (stereo not given) [BIOTIN] | LC retention time [16]: 7.34 min; LC retention time [17]: 13.7 min; LC retention time [18]: 3.98 min; LC retention time [19]: 11.7 min; LC retention time [20]: 12.3 min; LC retention time [21]: 11.4 min; LC retention time [22]: 30.7 min; LC retention time [23]: 15.5 min; LC retention time [24]: 13.3 min; LC retention time [25]: 12.1 min; LC retention time [26]: 8.19 min
3 | 10.2 | 14.7 | 14.2 | 11.5 | 14.4 | 10.1 | 13 | 11.1 | 11.7 | 12.2 | 14.6 | 14.6 | 11.3 | 11.6 | 14.6 | Cn1c(=O)c2c(ncn2C)n(C)c1=O [CAFFEINE] | 
4 | 2.38 | 2.71 | 9.27 | 3.48 | 2.74 | 2.45 | 6.86 |  |  | 5.85 | 2.66 | 2.66 |  |  |  | Nc1nc2nc[nH]c2c(=O)[nH]1 [GUANINE] | 
5 | 23 | 26.6 | 28.2 | 24.1 | 26.4 | 22.2 | 27.4 | 22.4 | 26.1 | 26.6 | 28.1 | 27.9 |  |  | 29.1 | CCCCCCCCCCCCCCCC(O)C(N)CO (stereo not given) [SPHINGANINE] | 

Row | Structure (SMILES) | LC retention time [1] [min] | LC retention time [2] [min] | LC retention time [3] [min] | LC retention time [4] [min] | LC retention time [5] [min] | LC retention time [6] [min] | LC retention time [7] [min] | LC retention time [8] [min] | LC retention time [9] [min] | LC retention time [10] [min] | LC retention time [11] [min] | LC retention time [12] [min] | LC retention time [13] [min] | LC retention time [14] [min] | LC retention time [15] [min] | other results
6 | NC(Cc1ccc(Oc2cc(I)c(O)c(I)c2)c(I)c1)C(=O)O (stereo not given) [3,3',5'-TRIIODOTHYRONINE] | 17.9 | 21.8 | 22.5 | 19.1 | 21.6 | 17.3 | 21.4 | 17.9 | 20.2 | 20.8 | 22.2 | 22.2 |  |  |  | 
7 | O=C(O)c1ccc(=O)[nH]c1 [6-HYDROXYNICOTINATE] | 2.17 | 6.46 | 6.98 | 3.28 | 6.36 | 2.27 | 5.13 | 3.6 | 3.45 | 4.17 | 6.29 | 2.75 |  |  |  | 
